The target of the assay is T1, Acetylcholinesterase (Rattus norvegicus, UniProt P37136).
T1 sequence (P37136 whole entry): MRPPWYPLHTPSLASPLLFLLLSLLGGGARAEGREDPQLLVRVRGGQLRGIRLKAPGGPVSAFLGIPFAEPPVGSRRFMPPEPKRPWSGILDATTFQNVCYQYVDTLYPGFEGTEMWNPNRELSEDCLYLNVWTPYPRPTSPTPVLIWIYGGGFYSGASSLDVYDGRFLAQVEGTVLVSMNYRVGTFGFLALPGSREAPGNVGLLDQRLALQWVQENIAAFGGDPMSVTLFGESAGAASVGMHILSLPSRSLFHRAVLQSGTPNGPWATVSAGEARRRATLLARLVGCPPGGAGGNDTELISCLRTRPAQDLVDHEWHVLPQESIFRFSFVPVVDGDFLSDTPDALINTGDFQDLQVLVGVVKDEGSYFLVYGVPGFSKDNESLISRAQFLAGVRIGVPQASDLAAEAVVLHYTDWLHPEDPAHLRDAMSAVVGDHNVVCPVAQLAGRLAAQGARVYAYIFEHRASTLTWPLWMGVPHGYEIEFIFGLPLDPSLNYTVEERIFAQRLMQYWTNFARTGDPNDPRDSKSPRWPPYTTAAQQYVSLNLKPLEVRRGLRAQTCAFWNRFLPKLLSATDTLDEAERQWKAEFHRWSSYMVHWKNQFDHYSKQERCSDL

SMILES strings stand for the structures.

Description: In vitro inhibitory effect on rat Acetylcholinesterase

With `CN(CCOCCNC(=S)Nc1cccc2ccccc12)Cc1ccccc1`, the IC50 (usually the concentration needed to halve the response being measured) is over 10 µM.

The molecule `CN(CCOCC/N=C(\S)Nc1cccnc1)Cc1ccccc1` had an IC50 of 4 µM. This lies in the single-digit micromolar range. `CN(CCOCCNC(=S)NC(=O)c1ccc(-c2ccccc2)cc1)Cc1ccccc1` had an IC50 of 0.23 µM. Against the preceding molecule, the IC50 is about 17-fold lower. Turning to `CN(CCOCCCNC(=S)NC(=O)c1ccccc1)Cc1ccccc1`, half-maximal inhibition (IC50) required 1.1 µM. To `Cc1ccc(C(=O)NC(=S)NCCOCCN(C)Cc2ccccc2)cc1` belongs 0.077 µM. Consider `CN(CCOCCNC(=S)NC(=O)C1=CC2C(=O)c3ccccc3C(=O)C2C=C1)Cc1ccccc1` (configuration not stated), for which the IC50 was 0.006 µM. Turning to `CN(CCOCCNC(=S)NC(=O)c1ccccc1)C1CCCCC1`, 0.013 µM corresponded to half-maximal inhibition (IC50). In turn, `CN(CCOCCNC(=S)NC1CCCCC1)Cc1ccccc1` gave an IC50 of 1.4 µM. This IC50 is about 110-fold higher than that of the molecule before.

Consider `CN(CCOCCNC(=S)Nc1ccc(OC(F)(F)F)cc1)Cc1ccccc1`, for which half-maximal inhibition (IC50) required 1 µM. `CN(CCOCCNC(=S)NC(=O)c1ccc2c(c1)-c1ccccc1C2=O)Cc1ccccc1` displayed an IC50 of 0.03 µM. To `CN(CCOCCNC(=O)Nc1ccc([N+](=O)[O-])cc1)Cc1ccccc1` belongs 2.3 µM; to `CN(CCOCCNC(=S)NC(=O)c1ccccc1)Cc1ccccc1`, 0.12 µM; to `COc1ccc(NC(=S)NCCOCCN(C)Cc2cccc([N+](=O)[O-])c2)cc1OC`, 1.5 µM.

Molecule `COc1ccc(C(=O)NC(=S)NCCOCCN(C)Cc2ccccc2)cc1` gave an IC50 of 0.026 µM. With `CN(CCOCCNC(S)=NC(=O)c1cccc([N+](=O)[O-])c1)Cc1ccccc1`, half-maximal inhibition (IC50) required 0.015 µM. Against the preceding molecule, the IC50 is about 1.7-fold lower. To `CCN(CCOCCNC(=O)NCc1ccccc1)CC1CCCCC1` belongs over 10 µM. To `CN(CCOCCNC(=S)NC(=O)c1ccc(Cl)c(Cl)c1)Cc1ccccc1` belongs 0.055 µM.

Source of the values: ChEMBL document CHEMBL1128491, “Flexible 1-[(2-aminoethoxy)alkyl]-3-ar(o)yl(thio)ureas as novel acetylcholinesterase inhibitors. Synthesis and biochemical evaluation” (J Med Chem, 1995).
